Assay results taken from patent US6610750B1, “Treatment of osteoarthritis” (Laboratoires Negma, priority 2000, dated 2003).

Experiments:
[1] = test system: patients with severe to moderate hip osteoarthritis; test: three-year, randomized, double-blind, placebo-controlled study of radiological progression of hip osteoarthritis; type: in vivo, human
Description: In order to further explore the potential usefulness of diacerein in the treatment of osteoarthritis, and to closely monitor the relevance of the effects of the treatment by using an accurate radiographic technique, the inventors carried out a 3-year, randomized, double-blind and placebo-controlled multicenter clinical trial in 507 patients with hip osteoarthritis. The unexpected result of the study was that diacerein has a beneficial effect as a structure-modifying treatment for osteoarthritis, as evidenced radiographically by a reduction of the destructive progression of hip osteoarthritis. The results of this study are reported in Dougados M., Nguyen M., Berdah L., Lequesne M., Mazières B., Vignon E. 1999; “Evaluation of the structural (radiological) effect of diacerein in osteoarthritis of the hip: a 3-year placebo controlled study”, Osteoarthritis and Cart 7, Suppl. A: 123, and are by reference thereto incorporated herein in their entirety.
In a three-year, randomized, double-blind, placebo-controlled study, 507 patients with severe to moderate hip osteoarthritis were assigned to receive either diacerein, 50 mg twice daily, or an identical placebo. The primary criterion of radiological progression of osteoarthritis was defined by a reduction in the joint space width or at least 0.5 mm during the study. The annual joint space narrowing rate (mm/year) was also determined in the patients who completed the treatment.
A total of 482 patients who had at least two radiographs were evaluated. Baseline characteristics of the 241 patients in each group were similar. In the placebo group, 62.7% of the patients had radiological progression, compared to 53.9% in the diacerein group (log-rank test: p=0.037). Treatment was followed for three years by 269 patients, among whom 55.1% in the placebo group and 41.2% in the diacerein group had radiological progression (log-rank test: p=0.007).

solubility of diacerein = type: physicochemical
[2] = test system: prostaglandin biosynthesis; details: cited from earlier work
[3] = test system: IL-1 and other cytokines (IL-6 and TNF); details: several studies in vitro and with animal models of osteoarthritis; cited from earlier work
osteoarthritis = details: after the start of the treatment; cited from earlier work

CC(=O)Oc1cccc2c1C(=O)c1c(OC(C)=O)cc(C(=O)O)cc1C2=O [diacerein, diacetylrhein]
annual joint space narrowing rate ([1]; 269 patients who completed three years, diacerein 50 mg twice daily, placebo 0.23±0.23, p=0.042): 0.18±0.25 mm/year
patients with radiological progression (reduction in joint space width of at least 0.5 mm) ([1]; 269 patients who followed treatment for three years, diacerein 50 mg twice daily, placebo 55.1%, log-rank p=0.007): 41.2%
patients with radiological progression (reduction in joint space width of at least 0.5 mm) ([1]; 482 patients with at least two radiographs, 241 per group, diacerein 50 mg twice daily, placebo 62.7%, log-rank p=0.037): 53.9%
structure-modifying effect as compared to placebo ([1]; over the three-year period): statistically significant structure-modifying effect
solubility in alcohol (solubility of diacerein; alcohol): virtually insoluble
solubility in water (solubility of diacerein; water): virtually insoluble
inhibitory effect on the phospholiphase, cyclo-oxygenase or lipo-oxygenase pathways (prostaglandin biosynthesis) [2]: no inhibitory effect
inhibition of IL-1 and other cytokines (IL-6 and TNF) [3]: inhibit
time of onset of the effect (osteoarthritis): ≥ 4 weeks
